Assays:
[1] = Clinical study of raloxifene: toxicity (NCI Common Toxicity Criteria, v2.0); format: in vivo, human
Protocol: Response to therapy was assessed after the first two months of therapy and then monthly thereafter. Toxicity was assessed monthly at each study visit. […] A partial response (“PR”) required a decrease by >50% of the sum of the products of the perpendicular diameters for all measurable lesions lasting at least one month, no appearance of new lesions, and a reduction in serum PSA by >50% on two consecutive occasions at least one month apart. For patients being evaluated by bone metastases, a PR required a reduction in serum PSA by >50% on two consecutive occasions at least one month apart an improvement in bone scan (reduction in intensity or size of one or more metastatic foci and no new foci of radionuclide uptake unless due to […] healing documented on plain radiograph, CT scan, or MRI scan). During this time there should have been no cancer-associated deterioration in weight, performance status, or symptoms. Progressive disease (“PD”) was defined by any of the following: (1) increase >25% in the sum of the products of the perpendicular diameters of bidimensionally measurable lesions in the sum of the transverse diameters of unidimensionally measurable lesions, (2) the appearance of new lesions, and (3) by the increase in serum PSA >50% over baseline as documented on two successive measurements >28 days apart. […] For PD to be scored by PSA criteria alone, a confirmatory PSA determination was required and obtained two weeks after the value representing a >50% increase. Patients who had improvement in one objective parameter while meeting the criteria for PD by another parameter were scored as having PD.
Treatment was administered with monthly lab draws and follow-up visits with the physician. […] Patients received 1 mg oral COUMADIN daily (or 0.5 mg oral COUMADIN daily if patients were already taking aspirin).
The reported urinary tract infection (“UTI”) (1) and hematuria (1) were thought to be related to the patient's underlying disease. Two grade 3 events were reported: a grade 3 arthralgia/myalgia thought to be related to the patient's recent injury, and a grade 3 elevated creatinine that was attributed to the patient's disease progression.

ER-β mRNA = test: Real-time RT-PCR of MSKPC9 xenograft tumors, ER-β mRNA; format: in vivo; conditions: MSKPC9 tumor xenografts, treated vs control
Protocol: Total RNA was extracted from prostate tumors using TRIZOL reagent (available from Invitrogen Corporation; Carlsbad, Calif.). DNase I (obtained from Ambion, Inc.; Austin, Tex.) was used to rid the samples of any extraneous DNA that might interfere with the reaction. The yield was quantified spectrophotometrically. Total RNA was reverse-transcribed into cDNA and PCR was performed in the same reaction by using TAQMAN One-Step RT-PCR Master Mix Reagents Kit (obtained from Applied Biosystems; Foster City, Calif.; hereinafter “Applied Biosystems”). Probes were labeled with 6-FAM on the 5′ end and TAMRA on the 3′ end. β-actin was used as the endogenous control and normalizer. The primer pairs used are depicted in Table 1, as follows:
The PCR cycling conditions were performed for all of the samples as follows: 30 minutes at 48° C. for RT step; 10 minutes at 95° C. for […] GOLD Activation (available from Applied Biosystems); and 40 cycles for the melting (95° C., 15 seconds), and annealing/elongation (60° C. for one minute) steps. PCR reactions for each template were done in triplicate using 1 μg of total mRNA per sample. Each gene-specific primer pair was tested on standard 384-well plates. […]
The comparative Ct method (PE Applied Biosystems) was used to determine relative quantification of gene expression for each gene compared with the β-actin control. […]

PSA = PSA levels in animals with MSKPC9 xenografts (enzymatic immunoassay); format: in vivo, nude athymic BALB/c male mice
Protocol: Levels of PSA in the blood of implanted animals were determined using an enzymatic immunoassay kit (obtained from American Qualex; San Clemente, Calif.). Blood samples were obtained prior to treatment by a small incision in the dorsal tail vein to collect 50 μl of blood using a serum-separator tube, or via a cardiac draw at sacrifice.

O=C(c1ccc(OCCN2CCCCC2)cc1)c1c(-c2ccc(O)cc2)sc2cc(O)ccc12 [raloxifene]
no difference: ER-β mRNA, difference between treatment groups (ER-β mRNA)
rising PSA levels: levels of PSA in the blood of implanted animals (FIG. 3) (PSA; MSKPC9 xenograft animals treated with raloxifene)
mild (grade 1-2): severity of most drug related toxicities reported ([1]; 60 mg oral daily)
3 patients: Patients experiencing drug-related toxicity: Increased Alkaline Phosphatase ([1]; Grade 1)
1 patients: Patients experiencing drug-related toxicity: Bicarbonate ([1]; Grade 1) | Patients experiencing drug-related toxicity: Bone Pain ([1]; Grade 1) | Patients experiencing drug-related toxicity: Diarrhea ([1]; Grade 1) | Patients experiencing drug-related toxicity: Edema ([1]; Grade 1) | Patients experiencing drug-related toxicity: Fatigue/Malaise ([1]; Grade 1) | Patients experiencing drug-related toxicity: Hematuria ([1]; Grade 1) | Patients experiencing drug-related toxicity: Hyperglycemia ([1]; Grade 1) | Patients experiencing drug-related toxicity: Hypoglycemia ([1]; Grade 1) | Patients experiencing drug-related toxicity: Increased Creatinine ([1]; Grade 1) | Patients experiencing drug-related toxicity: Increased SGOT (AST) ([1]; Grade 1) | Patients experiencing drug-related toxicity: Nausea/Vomiting ([1]; Grade 1) | Patients experiencing drug-related toxicity: Rash ([1]; Grade 1) | Patients experiencing drug-related toxicity: UTI ([1]; Grade 1) | Patients experiencing drug-related toxicity: Anemia ([1]; Grade 2) | Patients experiencing drug-related toxicity: Bone Pain ([1]; Grade 2) | Patients experiencing drug-related toxicity: Fatigue/Malaise ([1]; Grade 2) | Patients experiencing drug-related toxicity: Hypertriglyceridemia ([1]; Grade 2) | Patients experiencing drug-related toxicity: Hypotension ([1]; Grade 2) | Patients experiencing drug-related toxicity: Nausea/Vomiting ([1]; Grade 2) | Patients experiencing drug-related toxicity: Arthralgia/Myalgia ([1]; Grade 3) | Patients experiencing drug-related toxicity: Hyperglycemia ([1]; Grade 3) | Patients experiencing drug-related toxicity: Increased Creatinine ([1]; Grade 3)
2 patients: Patients experiencing drug-related toxicity: Anemia ([1]; Grade 1) | Patients experiencing drug-related toxicity: Arthralgia/Myalgia ([1]; Grade 1) | Patients experiencing drug-related toxicity: Hot flashes ([1]; Grade 1) | Patients experiencing drug-related toxicity: Hypercholesterolemia ([1]; Grade 1) | Patients experiencing drug-related toxicity: Hypoalbuminemia ([1]; Grade 1) | Patients experiencing drug-related toxicity: Constipation ([1]; Grade 2)
increasing: PSA (per tumor volume) (FIG. 3) (PSA; MSKPC9 tumor xenografts, raloxifene treatment)
well tolerated: tolerability ([1]; 60 mg oral daily, with low dose COUMADIN)

Reference: patent US7425565B2, “Use of benzothiopenes to treat and prevent prostate cancer” (Cedars-Sinai Medical Center, priority 2002, dated 2008)
